# Results taken from ChEMBL document CHEMBL1201862, “PubChem BioAssay data set” (2004).
# Activity calls are given as the source filed them.
# Experiments:
# Vero [1] = experiment: Vero cell cytotoxicity, cytotoxicity control for flavivirus capping enzyme inhibitors (AID 588742); format: functional; conditions: Chlorocebus sabaeus
# [2] = biological target: T1, 1-phosphatidylinositol 4,5-bisphosphate phosphodiesterase beta-3 (Homo sapiens, UniProt Q01970); experiment: Fluorescence-based biochemical high throughput dose response assay to identify inhibitors of phospholipase C isozymes (PLC-B3).
# T1 sequence (Q01970 whole entry): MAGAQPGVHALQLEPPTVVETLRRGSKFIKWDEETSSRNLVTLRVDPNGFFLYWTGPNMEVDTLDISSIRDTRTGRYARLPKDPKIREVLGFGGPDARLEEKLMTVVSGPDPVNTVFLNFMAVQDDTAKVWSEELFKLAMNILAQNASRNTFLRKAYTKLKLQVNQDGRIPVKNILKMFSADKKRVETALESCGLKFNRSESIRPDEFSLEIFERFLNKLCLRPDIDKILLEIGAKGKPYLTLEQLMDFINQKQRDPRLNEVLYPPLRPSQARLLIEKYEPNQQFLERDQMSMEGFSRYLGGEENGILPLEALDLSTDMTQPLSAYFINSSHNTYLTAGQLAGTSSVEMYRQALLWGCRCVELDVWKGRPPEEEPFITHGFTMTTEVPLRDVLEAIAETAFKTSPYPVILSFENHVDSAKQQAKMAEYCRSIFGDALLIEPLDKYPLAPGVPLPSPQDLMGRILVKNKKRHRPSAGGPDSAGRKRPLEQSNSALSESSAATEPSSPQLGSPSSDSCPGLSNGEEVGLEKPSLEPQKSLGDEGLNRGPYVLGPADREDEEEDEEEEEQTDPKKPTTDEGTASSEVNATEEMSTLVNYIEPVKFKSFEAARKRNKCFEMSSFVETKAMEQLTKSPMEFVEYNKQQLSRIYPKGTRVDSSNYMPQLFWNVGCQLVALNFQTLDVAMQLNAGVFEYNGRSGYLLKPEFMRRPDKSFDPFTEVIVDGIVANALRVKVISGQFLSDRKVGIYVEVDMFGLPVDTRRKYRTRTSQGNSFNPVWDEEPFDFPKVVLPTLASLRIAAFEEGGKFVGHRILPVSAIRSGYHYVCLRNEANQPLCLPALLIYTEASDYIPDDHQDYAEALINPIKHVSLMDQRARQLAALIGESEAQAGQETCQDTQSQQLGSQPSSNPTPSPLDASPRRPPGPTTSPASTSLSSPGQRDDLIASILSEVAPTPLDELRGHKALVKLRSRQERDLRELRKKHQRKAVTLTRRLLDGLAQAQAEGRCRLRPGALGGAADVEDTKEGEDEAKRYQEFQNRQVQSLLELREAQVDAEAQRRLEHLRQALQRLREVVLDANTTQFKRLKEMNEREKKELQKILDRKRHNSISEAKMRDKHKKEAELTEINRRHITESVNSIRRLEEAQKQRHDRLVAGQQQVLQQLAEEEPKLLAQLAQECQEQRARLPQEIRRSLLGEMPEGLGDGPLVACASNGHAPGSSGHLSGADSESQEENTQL
# [3] = biological target: Potassium voltage-gated channel subfamily KQT member 2 (Rattus norvegicus, UniProt O88943, W236L); experiment: KCNQ2 channel potentiators, dose response, mechanism study for KCNQ2 potentiator project, cell-based, automated electrophysiology (AID 2603); format: functional
# Chain of Potassium voltage-gated channel subfamily KQT member 2 (O88943 whole entry W236L): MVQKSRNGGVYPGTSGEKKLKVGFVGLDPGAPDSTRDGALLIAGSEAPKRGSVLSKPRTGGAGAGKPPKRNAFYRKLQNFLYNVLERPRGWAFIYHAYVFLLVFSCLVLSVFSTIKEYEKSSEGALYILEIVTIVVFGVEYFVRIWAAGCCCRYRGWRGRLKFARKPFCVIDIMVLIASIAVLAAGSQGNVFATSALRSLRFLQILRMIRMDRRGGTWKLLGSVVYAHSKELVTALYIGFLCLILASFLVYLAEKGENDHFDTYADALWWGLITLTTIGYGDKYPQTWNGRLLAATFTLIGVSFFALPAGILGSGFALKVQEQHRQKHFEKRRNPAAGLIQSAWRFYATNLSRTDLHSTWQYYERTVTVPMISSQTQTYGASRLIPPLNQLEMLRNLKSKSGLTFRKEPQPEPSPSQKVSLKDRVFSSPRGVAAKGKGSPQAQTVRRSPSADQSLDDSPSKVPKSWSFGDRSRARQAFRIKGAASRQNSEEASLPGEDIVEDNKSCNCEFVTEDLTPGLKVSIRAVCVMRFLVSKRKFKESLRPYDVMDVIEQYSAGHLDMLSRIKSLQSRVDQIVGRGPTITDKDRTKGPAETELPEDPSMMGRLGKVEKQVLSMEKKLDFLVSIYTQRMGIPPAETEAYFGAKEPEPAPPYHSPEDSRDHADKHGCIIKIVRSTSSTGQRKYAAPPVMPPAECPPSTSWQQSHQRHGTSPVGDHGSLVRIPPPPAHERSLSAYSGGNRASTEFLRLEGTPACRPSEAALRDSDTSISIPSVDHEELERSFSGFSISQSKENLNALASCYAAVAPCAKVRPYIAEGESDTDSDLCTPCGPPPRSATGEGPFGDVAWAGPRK
# [4] = biological target: Dual specificity tyrosine-phosphorylation-regulated kinase 1A (Rattus norvegicus, UniProt Q63470); format: biochemical, Homo sapiens
# Beta-galactosidase = Beta-galactosidase (Escherichia coli, UniProt Q8VNN2); experiment: beta-galactosidase enzyme inhibitors and activators, dose response, artefact control for CCR6 antagonist project, biochemical, E. coli enzyme, set 3 (AID 504712); format: functional
# Chain of Beta-galactosidase (Q8VNN2 whole entry): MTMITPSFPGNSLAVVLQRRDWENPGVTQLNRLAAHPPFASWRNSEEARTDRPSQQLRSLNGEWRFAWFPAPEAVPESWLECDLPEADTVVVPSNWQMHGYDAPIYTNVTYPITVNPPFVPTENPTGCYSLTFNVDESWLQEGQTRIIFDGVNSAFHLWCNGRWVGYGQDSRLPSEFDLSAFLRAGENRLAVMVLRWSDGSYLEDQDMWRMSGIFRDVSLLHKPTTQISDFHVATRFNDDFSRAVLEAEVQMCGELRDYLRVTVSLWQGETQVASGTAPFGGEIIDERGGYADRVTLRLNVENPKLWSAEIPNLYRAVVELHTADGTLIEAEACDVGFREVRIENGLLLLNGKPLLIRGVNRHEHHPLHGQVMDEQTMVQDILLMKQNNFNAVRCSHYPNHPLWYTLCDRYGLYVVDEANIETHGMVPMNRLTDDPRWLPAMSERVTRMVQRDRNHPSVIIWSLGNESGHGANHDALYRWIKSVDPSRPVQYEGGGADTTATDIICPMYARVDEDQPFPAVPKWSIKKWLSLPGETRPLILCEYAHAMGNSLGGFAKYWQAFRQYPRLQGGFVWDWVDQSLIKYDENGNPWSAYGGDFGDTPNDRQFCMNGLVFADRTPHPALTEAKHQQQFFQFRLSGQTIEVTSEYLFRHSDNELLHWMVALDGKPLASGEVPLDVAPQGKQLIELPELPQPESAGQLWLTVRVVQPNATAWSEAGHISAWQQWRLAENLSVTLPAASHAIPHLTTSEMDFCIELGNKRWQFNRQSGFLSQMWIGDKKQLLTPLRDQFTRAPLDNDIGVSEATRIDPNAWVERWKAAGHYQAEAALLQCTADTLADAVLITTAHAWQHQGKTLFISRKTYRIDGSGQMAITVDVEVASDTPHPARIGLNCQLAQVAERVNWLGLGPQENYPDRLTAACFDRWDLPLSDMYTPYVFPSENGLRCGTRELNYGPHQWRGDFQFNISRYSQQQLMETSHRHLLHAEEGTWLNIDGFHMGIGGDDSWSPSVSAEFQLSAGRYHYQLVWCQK
# [5] = growth suppression of beta-catenin-knockout colon cells, dose response, cell-based, HCT116, human colon tumor (AID 1045); format: functional;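 note: HCT116 colon tumor cells with beta catenin knocked out; cells exposed to compound for 60 hours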
# Vero [6] = experiment: cells; format: functional, cell-based; conditions: Chlorocebus sabaeus
# Vero [7] = experiment: cells; format: functional; conditions: Chlorocebus sabaeus
# BJ = experiment: cells; format: functional, cell-based; conditions: Homo sapiens
# [8] = biological target: Neurotensin receptor type 1 (Homo sapiens, UniProt P30989); format: functional;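 note: Image-based confirmatory dose-response assay measuring agonist activity at NTR1; NTR1-expressing U2OS osteosarcoma cells imaged for beta-arrestin GFP spot formation; agonist potency where compounds increase beta-arrestin recruitment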
# Chain of Neurotensin receptor type 1 (P30989 whole entry): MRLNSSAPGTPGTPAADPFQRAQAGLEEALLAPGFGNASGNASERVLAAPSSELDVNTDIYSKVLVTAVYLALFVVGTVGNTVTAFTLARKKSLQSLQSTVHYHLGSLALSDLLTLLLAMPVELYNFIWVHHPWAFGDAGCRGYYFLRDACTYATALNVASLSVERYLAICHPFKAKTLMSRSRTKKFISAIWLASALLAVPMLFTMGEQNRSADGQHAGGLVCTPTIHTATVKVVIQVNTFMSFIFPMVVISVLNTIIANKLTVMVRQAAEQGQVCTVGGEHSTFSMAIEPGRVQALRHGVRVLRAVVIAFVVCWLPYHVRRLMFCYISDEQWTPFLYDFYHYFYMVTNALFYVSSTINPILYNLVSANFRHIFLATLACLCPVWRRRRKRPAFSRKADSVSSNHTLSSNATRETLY
smiles,measurement,setting,value
CCCCn1c(NC(=O)c2ccco2)c(C(=O)OCC)c2nc3ccccc3nc21,CC50,Vero [1],> 40 µM (active)
Cc1ccccc1NC1=C/C(=N\S(=O)(=O)c2ccc(C(=O)O)cc2)c2ccccc2C1=O,IC50,[2],> 122 µM (inactive)
same,EC50,[3],9.51 µM (active)
same,AC50,[4],4.11 µM (active)
Cc1ccc(NC2=C/C(=N/S(=O)(=O)c3cccs3)c3ccccc3C2=O)cc1,IC50,Beta-galactosidase,50.8 µM (inactive)
same,EC50,[5],2.82 µM (active)
O=C(Nc1ccc(C#Cc2ccccc2)cc1)C1CC1,IC50,cells,7.09 µM (active)
same,IC50,Vero [6],> 12.5 µM (active)
same,CC50,Vero [7],> 25 µM (active)
COC(=O)C[C@]1(C(=O)OC)CN(C#N)N(c2ccc(Cl)cc2)C12c1ccccc1-c1ccccc12,EC50,BJ,2.7 µM (active)
same,EC50,[8],3.27 µM (active)
